Target: T1, M2R(S110R)_delta_ICL3 (Homo sapiens, UniProt P08172, DEL233-359/S110R)
T1 sequence (P08172 with tags, fused parts or gaps S110R/DEL233-359): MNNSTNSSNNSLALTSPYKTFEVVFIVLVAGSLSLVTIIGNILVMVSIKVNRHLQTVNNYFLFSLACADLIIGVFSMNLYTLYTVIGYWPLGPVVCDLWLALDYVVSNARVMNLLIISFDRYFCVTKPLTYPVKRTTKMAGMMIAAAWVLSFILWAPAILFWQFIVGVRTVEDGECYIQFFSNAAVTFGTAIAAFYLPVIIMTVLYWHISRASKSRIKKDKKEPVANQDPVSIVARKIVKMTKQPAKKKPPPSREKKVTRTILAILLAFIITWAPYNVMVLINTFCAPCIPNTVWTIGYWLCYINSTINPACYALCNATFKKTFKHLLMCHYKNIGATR
Assay: Inhibition of [3H]NMS binding to M2R
Details: S110R vs wild type, Fig. 2e

## C[N+](C)(C)CC#CCOC1=NOCC1 [Iperoxo]
  reduction of affinity in S110R mutant relative to the wild type: ~1000 fold
